The target in one experiment is GSK3alpha (Homo sapiens, UniProt P49840). Briefly: GSK3alpha assay (same as the GSK3beta assay, GSK3alpha 0.25 ng/μl). It counts as biochemical. The following applies: −log IC50 (M); given as ranges (>8; 7-8; <7); read-out: pIC50 (GSK3alpha) (converted). How it is done: (§1) GSK3beta assays were performed at room temperature in a 100 μl reaction volume of 25 mM Tris (ph 7.4) containing 10 mM MgCl2.6H2O 1 mM DTT, 0.1 mg/ml BSA, 5% glyceol and containing 5.7 ng/μl GSK3β, 5 μM biotinylated phosphorylated CREB peptide, 1 μM APT, 0.85 μCi/ml ATP-P^33 and a suitable amount of a test compound of formula (I). After one hour, the reaction was terminated by adding 70 μl of Stop mix (0.1 mM APT, 5 mg/ml streptavidin coated PVT SPA bead pH 11.0). The beads to which the phosphorylated CREB peptide is attached were allowed to settle overnight and the radioactivity of the beads was counted in a microtiterplate scintillation counter and compared with the results obtained in a control experiment (without the presence of a test compound) in order to determine the percentage of GSK3β inhibition. The IC50 value, i.e. the concentration (M) of the test compound at which 50% of GSK3β is inhibited, was calculated from the dose response curve obtained by performing the above-described GSKK3β assay in the presence of different amounts of the test compound.
Chain of GSK3alpha (P49840 whole entry, species assumed): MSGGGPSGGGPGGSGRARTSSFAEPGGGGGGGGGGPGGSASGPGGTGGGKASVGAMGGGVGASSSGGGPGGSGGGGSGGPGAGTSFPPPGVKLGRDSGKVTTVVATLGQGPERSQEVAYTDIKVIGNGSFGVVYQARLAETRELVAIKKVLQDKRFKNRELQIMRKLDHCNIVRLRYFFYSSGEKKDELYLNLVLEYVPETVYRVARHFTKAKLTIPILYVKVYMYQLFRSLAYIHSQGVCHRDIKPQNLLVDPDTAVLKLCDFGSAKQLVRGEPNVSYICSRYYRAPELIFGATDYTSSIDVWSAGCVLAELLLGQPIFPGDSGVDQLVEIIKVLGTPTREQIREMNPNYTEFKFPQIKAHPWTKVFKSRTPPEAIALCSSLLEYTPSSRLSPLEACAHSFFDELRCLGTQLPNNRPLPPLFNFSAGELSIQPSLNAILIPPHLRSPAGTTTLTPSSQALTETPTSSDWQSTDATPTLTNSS
The GSK3alpha assay was performed in the same way as described above for the GSK3beta assay except for the concentration of GSK3alpha which is 0.25 ng/μl.

In the next experiment the target is GSK3β (Homo sapiens, UniProt P49841). The experiment can be described thus: GSK3beta assay (SPA, biotinylated phosphorylated CREB peptide, ATP-P33). The following applies: −log IC50 (M); given as ranges (>8; 7-8; <7); read-out: pIC50 (GSK3beta) (converted). In kind it is biochemical. The procedure:
as §1

Where only a bound is given, the exact number is not on record here.

Chain of GSK3β (P49841 whole entry, species assumed): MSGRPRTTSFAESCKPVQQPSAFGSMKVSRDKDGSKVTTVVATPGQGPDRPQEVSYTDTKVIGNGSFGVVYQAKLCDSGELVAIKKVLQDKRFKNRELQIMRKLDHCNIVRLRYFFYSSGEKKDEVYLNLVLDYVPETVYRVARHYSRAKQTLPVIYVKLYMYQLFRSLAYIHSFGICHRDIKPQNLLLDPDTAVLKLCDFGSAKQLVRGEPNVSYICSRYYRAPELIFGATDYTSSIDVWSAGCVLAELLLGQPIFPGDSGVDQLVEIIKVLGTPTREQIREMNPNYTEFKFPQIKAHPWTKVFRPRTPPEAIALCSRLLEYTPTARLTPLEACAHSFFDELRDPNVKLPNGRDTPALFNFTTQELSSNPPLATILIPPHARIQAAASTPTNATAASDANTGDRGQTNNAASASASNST

As for `CC(C)CC(=O)NCc1cccc(-n2nnc3cnc(Nc4ccc(S(N)(=O)=O)cc4)nc32)c1` [Compound 197], the IC50 on GSK3alpha and on GSK3β was less than 1e-08 M each time.

With `COCCOc1cccc(Nc2ncc3nnn(-c4cccc(CCO)c4)c3n2)c1` [Compound 262], the IC50 at GSK3alpha and on GSK3β was less than 1e-08 M each time.

Regarding `CCOC(=O)NCc1cccc(-n2nnc3cnc(Nc4ccc(C(N)=O)cc4)nc32)c1` [Compound 218], the IC50 at GSK3alpha and at GSK3β was less than 1e-08 M in each case.

Turning to `CC(=O)NCc1cccc(Nc2ncc3nnn(-c4cccc(F)c4)c3n2)c1` [Compound 73], the IC50 on GSK3alpha and at GSK3β was less than 1e-08 M each time.

Take `CC(C)CC(=O)NCc1cccc(-n2nnc3cnc(Nc4ccc(C(N)=O)cc4)nc32)c1` [Compound 191]: the IC50 at GSK3alpha and on GSK3β was less than 1e-08 M each time.

Turning to `COCc1cccc(Nc2ncc3nnn(-c4cccc(CC#N)c4)c3n2)c1` [Compound 266], the IC50 on GSK3alpha and at GSK3β was less than 1e-08 M each time.

As for `COc1cccc(-n2nnc3cnc(Nc4cccc(C(=O)O)c4)nc32)c1` [Compound 66], the IC50 at GSK3alpha and at GSK3β was 1e-08 to 1e-07 M each time.

`Cc1cccc(Nc2ncc3nnn(-c4cccc(F)c4)c3n2)c1` [Compound 14]: the IC50 is less than 1e-08 M at GSK3alpha and 1e-08 to 1e-07 M on GSK3β.

As for `COCc1cccc(Nc2ncc3nnn(-c4cccc(CNC(=O)C5CC5)c4)c3n2)c1` [Compound 201], the IC50 at GSK3alpha and at GSK3β was less than 1e-08 M throughout.

For the molecule `NS(=O)(=O)c1ccc(Nc2ncc3nnn(-c4cccc(F)c4)c3n2)cc1` [Compound 145], the IC50 at GSK3alpha and on GSK3β was less than 1e-08 M each time.

As for `COCc1cccc(-n2nnc3cnc(Nc4cccc(S(=O)(=O)NCC(N)=O)c4)nc32)c1` [Compound 141], the IC50 at GSK3alpha and on GSK3β was 1e-08 to 1e-07 M in each case.

`N#CCc1cccc(-n2nnc3cnc(Nc4ccc(CCO)cc4)nc32)c1` [Compound 268]: the IC50 on GSK3alpha and on GSK3β was less than 1e-08 M in each case.

`COCc1cccc(-n2nnc3cnc(Nc4ccc(Cl)cc4)nc32)c1` [Compound 338]: the IC50 at GSK3alpha and on GSK3β was less than 1e-08 M throughout.

In the case of `CNC(=O)c1ccc(Nc2ncc3nnn(-c4cccc(CCO)c4)c3n2)cc1` [Compound 329], the IC50 at GSK3alpha and on GSK3β was less than 1e-08 M each time.

Turning to `O=C(O)Cc1cccc(-n2nnc3cnc(Nc4cccc(C(=O)NCCO)c4)nc32)c1` [Compound 177], on GSK3alpha, the IC50 is 1e-08 to 1e-07 M.

For the molecule `CCOC(=O)NCc1cccc(-n2nnc3cnc(Nc4cccc([S+](C)[O-])c4)nc32)c1` (stereo not shown) [Compound 223], the IC50 on GSK3alpha and at GSK3β was less than 1e-08 M throughout.

Turning to `CCOC(=O)NCc1cccc(-n2nnc3cnc(Nc4ccc(OC)nc4)nc32)c1` [Compound 221], the IC50 on GSK3alpha and at GSK3β was less than 1e-08 M each time.

In the case of `O=C(O)c1ccc(Nc2ncc3nnn(-c4cccc(F)c4)c3n2)cc1` [Compound 30], the IC50 at GSK3alpha and at GSK3β was less than 1e-08 M in each case.

For `COCCOc1cccc(-n2nnc3cnc(Nc4ccc(Cl)cc4)nc32)c1` [Compound 335], the IC50 on GSK3alpha and on GSK3β was 1e-08 to 1e-07 M each time.

In the case of `O=C(O)c1cccc(Nc2ncc3nnn(-c4cccc(F)c4)c3n2)c1` [Compound 29], the values for the IC50 on GSK3alpha and at GSK3β were less than 1e-08 M and 1e-08 to 1e-07 M, respectively.

With `COCCOc1cccc(-n2nnc3cnc(Nc4ccc(CNCC(F)(F)F)cc4)nc32)c1` [Compound 312], the IC50 on GSK3alpha was less than 1e-08 M; at GSK3β, 1e-08 to 1e-07 M.

On to `CNC(=O)c1cccc(Nc2ncc3nnn(-c4cccc(F)c4)c3n2)c1` [Compound 24], for which the IC50 on GSK3alpha and at GSK3β was less than 1e-08 M throughout.

On to `N#CCc1cccc(-n2nnc3cnc(Nc4cccc(CO)c4)nc32)c1` [Compound 277], for which the IC50 on GSK3alpha and at GSK3β was less than 1e-08 M each time.

In the case of `COCc1cccc(-n2nnc3cnc(Nc4ccc(C(=O)O)c(C)c4)nc32)c1` [Compound 249], the IC50 on GSK3alpha and on GSK3β was less than 1e-08 M in each case.

With `O=C(O)c1ccc(Nc2ncc3nnn(-c4cccc(CNC(=O)C5CC5)c4)c3n2)cc1Cl` [Compound 212], the IC50 at GSK3alpha and at GSK3β was less than 1e-08 M in each case.

In the case of `NCc1cccc(Nc2ncc3nnn(-c4cccc(F)c4)c3n2)c1` [Compound 79], the IC50 on GSK3alpha and on GSK3β was 1e-08 to 1e-07 M throughout.

As to `CC(=O)NCc1cccc(-n2nnc3cnc(Nc4cccc(S(N)(=O)=O)c4)nc32)c1` [Compound 112], the IC50 at GSK3alpha and on GSK3β was less than 1e-08 M in each case.

`NC(=O)CNC(=O)c1cccc(Nc2ncc3nnn(-c4cccc(F)c4)c3n2)c1` [Compound 89]: the IC50 on GSK3alpha and on GSK3β was less than 1e-08 M in each case.

Regarding `CC(C)CC(=O)NCc1cccc(-n2nnc3cnc(Nc4ccc(CCO)cc4)nc32)c1` [Compound 195], the IC50 at GSK3alpha is less than 1e-08 M; on GSK3β it was 1e-08 to 1e-07 M.

As for `CC(=O)Nc1ccc(Nc2ncc3nnn(-c4ccccc4)c3n2)cn1` [Compound 83], the IC50 on GSK3alpha and on GSK3β was 1e-08 to 1e-07 M in each case.

With `COCc1cccc(-n2nnc3cnc(Nc4cccc(C(C)O)c4)nc32)c1` (stereo not shown) [Compound 143], the IC50 on GSK3alpha and at GSK3β was less than 1e-08 M throughout.

Turning to `O=C(O)Cc1ccc(Nc2ncc3nnn(-c4cccc(CNC(=O)C5CC5)c4)c3n2)cc1` [Compound 207], the IC50 at GSK3alpha and on GSK3β was less than 1e-08 M each time.

Take `COC(=O)c1cc(Nc2ncc3nnn(-c4cccc(F)c4)c3n2)ccc1NC(C)=O` [Compound 104]: the IC50 on GSK3alpha and on GSK3β was less than 1e-08 M throughout.

On to `O=C(O)c1ccc(Nc2ncc3nnn(-c4ccccc4)c3n2)cc1` [Compound 123], for which the IC50 at GSK3alpha and at GSK3β was less than 1e-08 M throughout.

`NS(=O)(=O)c1ccc(Nc2ncc3nnn(-c4cccc(C(=O)NCCO)c4)c3n2)cc1` [Compound 227]: the values for the IC50 at GSK3alpha and on GSK3β were less than 1e-08 M and 1e-08 to 1e-07 M, respectively.

For `O=C(NCCO)c1cccc(Nc2ncc3nnn(-c4cccc(CNC(=O)C5CC5)c4)c3n2)c1` [Compound 200], the IC50 is less than 1e-08 M at GSK3alpha and 1e-08 to 1e-07 M at GSK3β.

With `CCOC(=O)NCc1cccc(-n2nnc3cnc(Nc4cccc(C#N)c4)nc32)c1` [Compound 214], the IC50 on GSK3alpha and on GSK3β was less than 1e-08 M in each case.

`COc1ccc(Nc2ncc3nnn(-c4cccc(CNC(C)=O)c4)c3n2)cn1` [Compound 127]: the IC50 at GSK3alpha and on GSK3β was less than 1e-08 M throughout.

For `COCc1cccc(-n2nnc3cnc(Nc4cccc(C(=O)O)c4)nc32)c1` [Compound 121], the IC50 at GSK3alpha and on GSK3β was 1e-08 to 1e-07 M in each case.

On to `CCOC(=O)NCc1cccc(-n2nnc3cnc(Nc4ccc(CCO)cc4)nc32)c1` [Compound 220], for which the IC50 at GSK3alpha and on GSK3β was less than 1e-08 M throughout.

Regarding `CN(C)C(=O)c1ccc(Nc2ncc3nnn(-c4cccc(CCO)c4)c3n2)cc1` [Compound 330], the IC50 on GSK3alpha and on GSK3β was less than 1e-08 M throughout.

With `CS(=O)(=O)c1cccc(Nc2ncc3nnn(-c4cccc(F)c4)c3n2)c1` [Compound 44], the IC50 on GSK3alpha and on GSK3β was less than 1e-08 M each time.

Turning to `CC(C)(C)OC(=O)NCc1cccc(-n2nnc3cnc(Nc4ccc(F)cc4)nc32)c1` [Compound 270], the IC50 at GSK3alpha and on GSK3β was less than 1e-08 M in each case.

As to `CC(C)CC(=O)NCc1cccc(-n2nnc3cnc(Nc4ccc(C#N)cc4)nc32)c1` [Compound 190], the IC50 is less than 1e-08 M at GSK3alpha and 1e-08 M at GSK3β.

For `COc1cccc(-n2nnc3cnc(Nc4cccc(S(N)(=O)=O)c4)nc32)c1` [Compound 35], the IC50 on GSK3alpha and on GSK3β was less than 1e-08 M each time.

`O=C(O)c1cc(Nc2ncc3nnn(-c4cccc(F)c4)c3n2)ccc1Cl` [Compound 70]: on GSK3alpha, the IC50 is 1e-08 to 1e-07 M.

Regarding `O=C(O)c1cc(Nc2ncc3nnn(-c4cccc(F)c4)c3n2)ccc1O` [Compound 71], the IC50 at GSK3alpha was less than 1e-08 M; at GSK3β it was 1e-08 to 1e-07 M.

`COCCOCc1cccc(-n2nnc3cnc(Nc4ccc(Cl)cc4)nc32)c1` [Compound 336]: the IC50 on GSK3alpha and on GSK3β was less than 1e-08 M in each case.

For the molecule `CN(C)S(=O)(=O)c1cccc(Nc2ncc3nnn(-c4cccc(F)c4)c3n2)c1` [Compound 94], the IC50 on GSK3alpha and on GSK3β was less than 1e-08 M in each case.

As to `COCCOCc1cccc(-n2nnc3cnc(Nc4ccc(CCN)cc4)nc32)c1` [Compound 318], the IC50 at GSK3alpha and at GSK3β was 1e-08 to 1e-07 M throughout.

As for `COCc1cccc(-n2nnc3cnc(Nc4ccc(C(=O)O)cc4)nc32)c1` [Compound 125], the IC50 on GSK3alpha and at GSK3β was less than 1e-08 M in each case.

`COC(=O)c1cccc(Nc2ncc3nnn(-c4cccc(F)c4)c3n2)c1` [Compound 13]: the IC50 on GSK3β is 1e-08 to 1e-07 M.

Turning to `O=C(O)c1cccc(Nc2ncc3nnn(-c4cccc(CO)c4)c3n2)c1` [Compound 68], the IC50 on GSK3alpha was 1e-08 to 1e-07 M.

`COCCOCc1cccc(-n2nnc3cnc(Nc4cccc(C#N)c4)nc32)c1` [Compound 290]: the IC50 at GSK3β is less than 1e-08 M.

Source of the values: US7560458B2, “Triazolopyrimidine derivatives as glycogen synthase kinase 3 inhibitors” (Janssen Pharmaceutica, N.V., priority 2003, dated 2009).
